In article PMC10619691, “Effect of cyclic substituents on the anti-cancer activity and DNA interaction of ruthenium(II) bis-phenanthroline dipyridoquinoline” (Frontiers in Molecular Biosciences, 2023):

How the values were obtained:
HeLa cells [1] = assay: Annexin V apoptosis assay; assay type: cell-based, human
Protocol: To further analyze the cytotoxicity mechanisms, annexin V was used to determine whether VNK-572/cisplatin exerts an anti-cancer activity through apoptosis. The Annexin V assay was performed following the established procedure. The steps included treating the cells with the complex for 24, 48, and 72 h in 6-well plates and incubating at 37°C. The cells were then rinsed with PBS, trypsinized, and neutralized using culture media. The cells were then spun in the centrifuge at 2500 RPM for 3 min, and the supernatant was discarded. The cell pellet was then washed first with PBS and then with ×1 binding buffer. The cells were then suspended in approximately 1 mL of binding buffer (1–5 million cells), and approximately 100 ul of this suspension was stained with 5 μL of annexin V-APC dye for 15 min. The cells were then washed with binding buffer and resuspended in 200 μL of binding buffer before being stained with 5 ul of propidium iodide. The cells were then analyzed using a flow cytometer within 4 h.

various cell lines = assay: epi-fluorescence nuclear staining (nuclear morphology); assay type: cell-based; details: 72 h treatment, DAPI staining; cisplatin at 5 μM
Protocol: To assess the nuclear morphological changes caused by ruthenium complexes on the cell lines, the cells were stained using 4′,6-diamidino-2-phenylindole DAPI dye and analyzed under an EVOS epi-fluorescence microscope at a magnification of ×60 ([Lewandowska et al., 2013]). The protocol involves treating the cells with the complexes, culturing them in 6-well plates, and incubating them at 37°C for 72 h. The cells were then rinsed with PBS, trypsinized, and neutralized using culture media. The cells were then spun in a centrifuge at 2500 RPM for 3 min, and the supernatant was discarded. The cell pellet was then fixed with 15 μL of Carnoy’s solution, resuspended, and spread on a microscope slide. When the cells were dried, 2–3 drops of DAPI were dropped on the smear in the dark and covered with a slip. The slides were then viewed under the epi-fluorescence microscope, and the nuclei were characterized qualitatively. A total of 30 cells per slide were counted, and the number of cells with various nuclear morphologies was recorded. Cells were then classed as normal, chromatin-condensed, swollen, nuclear-condensed, and nuclear-fragmented cells based on their nuclear morphology.

[2] = tested on: A280-CP70 cisplatin-resistant ovarian cancer; assay: sulphorhodamine B (SRB) cytotoxicity assay; assay type: cell-based, human; details: for IC50: SRB assay, 72 h incubation, mean ± SEM
Protocol: (§1) The cytotoxicity profile of the ruthenium complexes […]-572, and POW-12A was assessed in various cancer cell lines, namely, human cervical cancer HeLa, prostate cancer cell line DU145, breast cancer cell line MDAMB231MB231, ovarian cancer cell line A2780, and cisplatin-resistant ovarian cancer cell line A2780-CP70, using the preferred screen of the National Cancer Institute, the sulphorhodamine (SRB) dye assay, and the trypan blue cell viability assay ([Skehan et al., 1990]; [Houghton et al., 2007]; [Strober, 2001]). To determine their selective toxicity profile, these complexes were also tested in a normal prostate cell line (PTN1A). From the similarity in chemical structures of the compounds, we deduced that a structure-activity relationship study will help elucidate key properties involved in the cytotoxic activity of this class of metal complexes. The sulphorhodamine B (SRB) assay was used to evaluate the cytotoxicity of each cancer line after treating them with the metal complexes in line with the previously established protocol ([Skehan et al., 1990]). A cell density of 3 × 10^4 cells/mL was treated with various concentrations (3, 10, 30, 50, and 100 μM) of each ruthenium complex by 1:200 dilutions of stock solutions (in DMSO) in culture media, using DMSO as a control. Then, 100 μL of the cell-drug suspension was added to the respective wells of a 96-well plate and incubated at 37°C for 72 h in a CO2-containing incubator. Following this, the cells were fixed using 25 ul of Carnoy's solution and left in the fridge (4°C) for 1 h. The plates were then rinsed with running water and tapped on paper to remove dead cells. The cells were then stained with 100 μL of sulphorhodamine B dye and left for 30 min, after which the dye was washed off using 1% acetic acid, and the plate was left to dry in the oven (60°C). The stained cells were then treated with 100 μL of Tris base (10 mM, pH 10) to solubilize the dye stain. Finally, the plates were analyzed using an Omega plate reader. Each assay was conducted in triplicate. % Cell response=Average of treated cells / Average of control cells x 100.

HeLa cervical cancer = assay: sulphorhodamine B (SRB) cytotoxicity assay; assay type: cell-based, human; details: 72 h incubation, mean ± SEM
Protocol: as §1

DU145 prostate cancer = assay: sulphorhodamine B (SRB) cytotoxicity assay; assay type: cell-based, human; details: 72 h incubation, mean ± SEM
Protocol: as §1

MDA-MB-231 (TNBC) = assay: sulphorhodamine B (SRB) cytotoxicity assay; assay type: cell-based, human; details: 72 h incubation, mean ± SEM
Protocol: as §1

PNT1A normal prostate = assay: sulphorhodamine B (SRB) cytotoxicity assay; assay type: cell-based, human; details: SRB assay, 72 h incubation; mean ± SEM
Protocol: as §1

A2780 ovarian cancer = assay: sulphorhodamine B (SRB) cytotoxicity assay; assay type: cell-based, human; details: SRB assay, 72 h incubation; mean ± SEM
Protocol: as §1

HeLa cells [3] = assay: cell cycle analysis; assay type: cell-based, human
Protocol: (§2) The cell cycle of cervical HeLa and prostate DU145 cancer cells was studied after treatment with VNK-572 and cisplatin, respectively (Figure 3). VNK-572 and cisplatin both reduced the G2 population after 72 h compared to control (e.g., 16%–11% in Hela (p = 0.06) and from 17% to 2% in the DU145 cell line (p = 0.003) for VNK-572) (Figure 3A). […] The DU145 cells saw a decrease in both phases following 72 h of treatment—from 68% to 40% and from 11% to 5% for the G1 and S phases, respectively (Figure 3A).

DU145 cells = assay: cell cycle analysis; assay type: cell-based, human; details: DU145, after 72 h; control 1%
Protocol: as §2

[4] = partition coefficient (log P), shake-flask method; assay type: physicochemical; details: phosphate buffered saline (pH 7.4) / 1-octanol
Source text: The role of lipophilicity in the activity of ruthenium (II) polypyridyl complexes is one that has been extensively reported ([Notaro and Gasser, 2017]). […] Based on this, we carried out a partition coefficient (log P) test using a shake-flask method to determine whether the marginal structural differences between VNK-754, VNK-572, and POW-12A affect their lipophilicity and to examine whether such a difference in lipophilicity confers any advantage to their anti-cancer activity. The log P results, as presented in Table 2, clearly show VNK-572 (0.014) and POW-12A (0.077) to be more lipophilic than VNK-754 (−0.874). […] Thus, along with varied DNA intercalating properties, this explains, in part, why there are appreciable differences in the cytotoxic effects of VNK572 and POW12A compared to VNK-754, even though they are generally similar in structure. For example, VNK-572 with an additional benzene ring can penetrate the bi-lipid-layered cell membrane better and achieve higher cellular and nuclear concentrations than VNK-754, producing a greater anti-tumor effect.
To study the lipophilicity of our complexes, we used the shake-flask method at 25.0 °C ± 0.1°C in line with the previously reported protocol ([Dubey et al., 2017]). Equal volumes of the aqueous phase (phosphate buffered saline, pH 7.4) and the 1-octanol phase were pre-saturated with each other overnight. A known amount of the complexes (respectively) was added to the aqueous phase, ensuring our final concentration was within the range of UV spectroscopic analysis; then, an equal volume of the pre-saturated […] phase was added. Both phases were then mixed in a conical flask and left shaking on a thermostatic shaker at a speed of 100 rpm overnight at room temperature. […] Considering that lipophilic compounds will partition into the octanol phase, the concentration of the complexes left in the aqueous phase was analyzed, respectively, by UV spectroscopy; then, the Log P value was calculated: Logp = Log10 ([solute] un-ionized octanol/[solute] un-ionized water).

[5] = tested on: RF I φX174 supercoiled circular DNA; assay: supercoiled DNA unwinding by atomic force microscopy; assay type: binding; details: AFM; P/D = 14 for POW-12A and VNK-572, P/D = 5 for VNK-754
Protocol: FIGURE 7 AFM height images RF I φX174 on a magnesium-soaked mica surface over an area of 2 µm. Samples with the ruthenium complex had solution mixing ratios of P/D = 14 for POW-12A and VNK-572; and of P/D = 5 VNK-754.
Samples for atomic force microscopy (AFM) were prepared on mica crystals cut into squares of approximately 1 cm^2. These squares were stuck with double-sided tape to a 15-mm diameter metal disc. Before sample preparation, Cellotape was used to remove the top layer of the mica crystal, giving a freshly cleaved surface layer on which the sample is to be deposited. Mica was soaked in a 0.1 M solution of MgCl2 for 5 min and blown dry, and Mg^2+ was used to help DNA (negatively charged) adhere to the negatively charged surface of the mica. For solutions containing DNA and POW-12A or VNK-572, a P/D value of 14 was used. For the solution containing DNA and VNK-754, a P/D value of 5 was used. Then, 2 μL of the solution was pipetted onto the mica surface and left for 10 min until the solvent had evaporated, leaving the DNA adhered to the surface. To remove excess salt, each sample was washed three times with 10 µL nanopure water, drying with nitrogen after each wash. AFM was conducted using a Bruker Multi-mode 2 atomic force microscope operated with a NanoScope V controller. ScanAsyst-AIR AFM tips were purchased from Bruker. Scans were run in tapping mode using ScanAsyst, measuring height, peak force error, and phase. The spring constant was adjusted to the spring constant of the tip, which is 0.4 N m^−1 for ScanAsyst-AIR tips; feedback parameters were set automatically by ScanAsyst Auto. Scans were run over 2 μm^2 areas with 512 lines. Images were prepared using NanoScope analysis software. Raw data were processed using first-order flattening and third-order plane fitting. If the background required smoothening due to large molecules on the surface, first-order flattening with a threshold of Z < 0.05 nm was used to improve the appearance of the background. […]

HeLa cells [6] = assay: cellular localization by confocal fluorescence microscopy; assay type: cell-based, human; details: 50 μM, 2 h incubation, co-localization with DAPI
Protocol: This was further confirmed by the co-localization of these complexes with a nuclear counterstain (DAPI) (Figure 2).
Fluorescence microscopy was used to study cellular localization. HeLa cells were seeded on autoclaved coverslips in the 6-well plate and incubated at 37°C for 48 h, after which the culture media were replaced with media containing VNK-572 (50 μM) and VNK-754 (50 μM), respectively, and further incubation was performed for 2 h. Following this, the cells were fixed with Carnoy’s solution and washed twice with PBS thereafter. Finally, the HeLa cells were counterstained with DAPI, and the seeded coverslips were inverted and placed on slides for examination. A Leica confocal microscope was used for the observation of the samples using a magnification of ×63.

**Q.** For N.N.[Cl][Pt][Cl] [Cisplatin, cisplatin, reference compound], which “Q2 (propidium iodide and annexin V APC-stained cells), late-stage apoptosis” value (HeLa cells [1]; 72 h of treatment, control 2%) is on record?
**A.** 9%

**Q.** What about the “Q4 (annexin V APC), early apoptosis” value (HeLa cells [1]; 72 h of treatment, control 14% (VNK-572), 13% (cisplatin)) of the same compound?
**A.** 39%

**Q.** And the “Q1 (necrosis)” value (HeLa cells [1]; after 72 h of treatment)?
**A.** < 6%

**Q.** And the nuclear morphology (various cell lines)?
**A.** nuclear swelling

**Q.** What about the IC50 [2] of the same compound?
**A.** 4 ± 0.58 µM

**Q.** What about the “resistance factor (IC50 A2780-CP70/IC50 A2780)” value ([2]; from SRB IC50 values) of the same compound?
**A.** two-fold

**Q.** And the IC50 (HeLa cervical cancer)?
**A.** 6 ± 0.58 µM

**Q.** What about the IC50 (DU145 prostate cancer) of the same compound?
**A.** 2.4 ± 0.09 µM

**Q.** And the IC50 (MDA-MB-231 (TNBC))?
**A.** 37 ± 8.08 µM

**Q.** And the IC50 (PNT1A normal prostate)?
**A.** 3.8 ± 0.58 µM

**Q.** And the IC50 (A2780 ovarian cancer)?
**A.** 2 µM

**Q.** What about the “changes in G1 / S phases” value (HeLa cells [3]) of the same compound?
**A.** increase in S-phase arrest

**Q.** And the sub-G1 population (HeLa cells [3]; 72 h of treatment, control 5% (VNK-572), 6% (cisplatin))?
**A.** 25%

**Q.** What about the sub-G1 population (DU145 cells) of the same compound?
**A.** 62%

**Q.** Which LogP [4] does the source give for F[P-](F)(F)(F)(F)F.F[P-](F)(F)(F)(F)F.[Ru+2].c1cnc2c(c1)c1cccnc1c1ncccc21.c1cnc2c(c1)ccc1cccnc12.c1cnc2c(c1)ccc1cccnc12 [VNK-754, ruthenium (II) bis-phenanthroline dipyridoquinoline] here?
**A.** −0.874

**Q.** And the “unwinding of supercoiled circular DNA” value [5]?
**A.** unwound

**Q.** And the cellular localization (HeLa cells [6])?
**A.** penetrate the nucleus

**Q.** And the IC50 [2]?
**A.** > 100 µM

**Q.** And the IC50 (HeLa cervical cancer)?
**A.** > 100 µM

**Q.** What about the IC50 (DU145 prostate cancer) of the same compound?
**A.** > 100 µM

**Q.** And the IC50 (MDA-MB-231 (TNBC))?
**A.** > 100 µM

**Q.** And the IC50 (PNT1A normal prostate)?
**A.** > 100 µM

**Q.** And the IC50 (A2780 ovarian cancer)?
**A.** 74 ± 14.4 µM
